Nine compounds from PubChem BioAssay AID248 (DTP/NCI, 2004) can be followed below.

Molecules are shown by their SMILES. Where “and” joins values, the source holds several entries; their conditions need not be identical. Equal values may be shown once. Inconclusive results and toxic doses are left out.

The test system of this test is L1210 leukemia ip in BDF1 mice, survival T/C. As to the kind of experiment: NCI In Vivo Anticancer Drug Screen. Data for tumor model L1210 Leukemia (intraperitoneal) in B6D2F1 (BDF1) mice. Particulars: endpoint: mean survival time, higher = longer survival. Put shortly: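 Transplanted-tumor mice were given test agent; controls received vehicle only. Survival readings from the two groups were divided (treated over control).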

[1] abbreviates: dose: 100.0 mg/kg/injection, schedule: Q04DX002 (ip), vehicle: Klucel (hydroxypropylcellulose) (HPC).
Setting [2] is: dose: 200.0 mg/kg/injection, schedule: Q04DX002 (ip), vehicle: Klucel (hydroxypropylcellulose) (HPC).
The mark [3] stands for this setting: dose: 400.0 mg/kg/injection, schedule: Q04DX002 (ip), vehicle: Klucel (hydroxypropylcellulose) (HPC).

For the compound `CC(C)=CCC1=C(O)c2ccccc2C(=O)C1=O`, the T/C (dose: 0.5 mg/kg/injection, schedule: Q01DX Z (ip), vehicle: water) is 91 % of control; the T/C (dose: 2.0 mg/kg/injection, schedule: Q01DX Z (ip), vehicle: water) was 94 % of control; the T/C (dose: 8.0 mg/kg/injection, schedule: Q01DX Z (ip), vehicle: water) is 91 % of control; the T/C (dose: 11.0 mg/kg/injection, schedule: Q01DX009 (ip), vehicle: carboxymethylcellulose (CMC)) is 107 % of control; the T/C (dose: 11.0 mg/kg/injection, schedule: Q01DX009 (ip), vehicle: other) is 95 % of control and 102 % of control; the T/C (dose: 15.0 mg/kg/injection, schedule: Q01DX Z (ip), vehicle: water) was 88 % of control. Further, the T/C was 111 % of control (dose: 16.67 mg/kg/injection, schedule: Q#B X027 (ip), vehicle: water); 97 % of control (dose: 16.67 mg/kg/injection, schedule: Q#B X027 (sc), vehicle: water); 98 % of control (dose: 17.0 mg/kg/injection, schedule: Q01DX009 (ip), vehicle: carboxymethylcellulose (CMC)); 94 % of control and 103 % of control (dose: 17.0 mg/kg/injection, schedule: Q01DX009 (ip), vehicle: other); 96 % of control (dose: 20.0 mg/kg/injection, schedule: Q01DX Z (ip), vehicle: water); 103 % of control (dose: 25.0 mg/kg/injection, schedule: Q01DX009 (ip), vehicle: carboxymethylcellulose (CMC)). For the same compound, the T/C was 95 % of control and 97 % of control (dose: 25.0 mg/kg/injection, schedule: Q01DX009 (ip), vehicle: other); 90 % of control (dose: 25.0 mg/kg/injection, schedule: Q#A X Z (ip), vehicle: water); 88 % of control (dose: 30.0 mg/kg/injection, schedule: Q01DX Z (ip), vehicle: water); 100 % of control (dose: 33.33 mg/kg/injection, schedule: Q#B X027 (oral), vehicle: water); 100 % of control (dose: 33.33 mg/kg/injection, schedule: Q#B X027 (sc), vehicle: water); 98 % of control (dose: 37.5 mg/kg/injection, schedule: Q01DX009 (ip), vehicle: carboxymethylcellulose (CMC)). Moreover, the T/C is 100 % of control and 102 % of control (dose: 37.5 mg/kg/injection, schedule: Q01DX009 (ip), vehicle: other); 96 % of control (dose: 40.0 mg/kg/injection, schedule: Q01DX Z (ip), vehicle: water); 95 % of control (dose: 50.0 mg/kg/injection, schedule: Q01DX015 (ip), vehicle: water); 97 % of control (dose: 50.0 mg/kg/injection, schedule: Q#A X Z (ip), vehicle: water); 102 % of control (dose: 56.0 mg/kg/injection, schedule: Q01DX009 (ip), vehicle: carboxymethylcellulose (CMC)); 94 % of control (dose: 60.0 mg/kg/injection, schedule: Q01DX Z (ip), vehicle: water). In addition, the T/C is 120 % of control (dose: 66.67 mg/kg/injection, schedule: Q#B X027 (ip), vehicle: water); 97 % of control (dose: 66.67 mg/kg/injection, schedule: Q#B X027 (oral), vehicle: water); 100 % of control (dose: 66.67 mg/kg/injection, schedule: Q#B X027 (sc), vehicle: water); 102 % of control and 104 % of control (dose: 84.0 mg/kg/injection, schedule: Q01DX009 (ip), vehicle: other); 92 % of control (dose: 90.0 mg/kg/injection, schedule: Q01DX Z (ip), vehicle: water); 91 % of control (dose: 100.0 mg/kg/injection, schedule: Q01DX Z (oral), vehicle: water). Moreover, the T/C is 95 % of control (dose: 100.0 mg/kg/injection, schedule: Q#A X Z (ip), vehicle: water); 102 % of control (dose: 125.0 mg/kg/injection, schedule: Q#A X018 (oral), vehicle: other); 101 % of control and 104 % of control (dose: 126.0 mg/kg/injection, schedule: Q01DX009 (ip), vehicle: other); 102 % of control (dose: 133.33 mg/kg/injection, schedule: Q#B X027 (oral), vehicle: water); 94 % of control (dose: 135.0 mg/kg/injection, schedule: Q01DX Z (ip), vehicle: water); 109 % of control and 122 % of control (dose: 189.0 mg/kg/injection, schedule: Q01DX009 (ip), vehicle: other). Moreover, the T/C reads like this: (dose: 200.0 mg/kg/injection, schedule: Q01DX001 (oral), vehicle: other) 114 % of control; (dose: 200.0 mg/kg/injection, schedule: Q01DX Z (ip), vehicle: water) 102 % of control; (dose: 200.0 mg/kg/injection, schedule: Q01DX Z (oral), vehicle: water) 96 % of control; (dose: 250.0 mg/kg/injection, schedule: Q#A X018 (oral), vehicle: other) 97 % of control; (dose: 300.0 mg/kg/injection, schedule: Q01DX Z (oral), vehicle: water) 98 % of control; (dose: 400.0 mg/kg/injection, schedule: Q01DX001 (oral), vehicle: other) 100 % of control. The T/C was 98 % of control (dose: 600.0 mg/kg/injection, schedule: Q01DX001 (oral), vehicle: other) and 96 % of control (dose: 900.0 mg/kg/injection, schedule: Q01DX001 (oral), vehicle: other).
In the case of `N#Cc1nccc2ccccc12`, the T/C reads like this: under setting [1], 106 % of control; under setting [2], 103 % of control; under setting [3], 100 % of control.
In the same order, the values of `Cc1ccccc1Nc1nc(N)nc2nc(N)c(C(N)=O)nc12` are 97 % of control, 92 % of control and 92 % of control.
For the compound `CC(=O)OC12C=C(C)C(C3C(=O)OC(=O)C31)C(C)(C)C2` (stereo unspecified), the T/C runs as follows: (dose: 50.0 mg/kg/injection, schedule: Q01DX009 (ip), vehicle: saline) 97 % of control; (dose: 100.0 mg/kg/injection, schedule: Q01DX009 (ip), vehicle: saline) 92 % of control; (dose: 200.0 mg/kg/injection, schedule: Q01DX009 (ip), vehicle: saline) 102 % of control.
In the case of `CC(NP1(=O)OCC(C)(N=Cc2ccccc2)CO1)c1ccccc1` (stereo unspecified), the T/C (dose: 50.0 mg/kg/injection, schedule: Q01DX001 (ip), vehicle: saline) is 104 % of control; the T/C (dose: 100.0 mg/kg/injection, schedule: Q01DX001 (ip), vehicle: saline) is 98 % of control; the T/C (dose: 200.0 mg/kg/injection, schedule: Q01DX001 (ip), vehicle: saline) is 104 % of control; the T/C (dose: 400.0 mg/kg/injection, schedule: Q01DX001 (ip), vehicle: saline) was 95 % of control.
Consider `CC(=Nc1ccc(Cl)cc1)Nc1ccc(Cl)cc1`, for which the T/C (dose: 62.5 mg/kg/injection, schedule: Q01DX009 (ip), vehicle: Klucel (hydroxypropylcellulose) (HPC)) is 92 % of control; the T/C (dose: 125.0 mg/kg/injection, schedule: Q01DX009 (ip), vehicle: Klucel (hydroxypropylcellulose) (HPC)) is 96 % of control; the T/C (dose: 250.0 mg/kg/injection, schedule: Q01DX009 (ip), vehicle: Klucel (hydroxypropylcellulose) (HPC)) is 100 % of control.
Take `NC(CSC(c1ccccc1)(c1ccccc1)c1ccc(Cl)cc1)C(=O)O` (stereo unspecified): the T/C by setting is: (dose: 1.3 mg/kg/injection, schedule: Q01DX009 (ip), vehicle: saline) 100 % of control; (dose: 2.0 mg/kg/injection, schedule: Q01DX009 (ip), vehicle: saline) 118 % of control; (dose: 6.25 mg/kg/injection, schedule: Q01DX009 (ip), vehicle: acetone) 151 % of control; (dose: 12.5 mg/kg/injection, schedule: Q01DX009 (ip), vehicle: acetone) 156 % of control; (dose: 12.5 mg/kg/injection, schedule: Q01DX009 (ip), vehicle: other) 163 % of control.
As for `C[CH2][Ge]([CH2]C)[CH2]C.C[CH2][Ge]([CH2]C)[CH2]C.C[CH2][Ge]([CH2]C)[O][Ge]([CH2]C)[CH2]C`, the T/C is 106 % of control (dose: 100.0 mg/kg/injection, schedule: Q04DX002 (ip), vehicle: saline with Tween-80); 106 % of control (dose: 200.0 mg/kg/injection, schedule: Q04DX002 (ip), vehicle: saline with Tween-80); 116 % of control (dose: 400.0 mg/kg/injection, schedule: Q04DX002 (ip), vehicle: saline with Tween-80).
Turning to `S=c1[nH]n2c(=S)[nH]nc2s1`, the T/C (dose: 100.0 mg/kg/injection, schedule: Q04DX003 (ip), vehicle: Klucel (hydroxypropylcellulose) (HPC)) was 101 % of control; the T/C (dose: 200.0 mg/kg/injection, schedule: Q04DX003 (ip), vehicle: Klucel (hydroxypropylcellulose) (HPC)) is 103 % of control; the T/C (dose: 400.0 mg/kg/injection, schedule: Q04DX003 (ip), vehicle: Klucel (hydroxypropylcellulose) (HPC)) is 93 % of control.
